Patent US20160271155A1, “Vitamin Formulations” (NESTEC S.A., priority 2013, published 2016)

Key:
[1] = Particle size of B9:stevioside solutions; format: physicochemical; conditions: Homogenization for 5 min and heat at 80° for 5 min; no unit in table (b98 speaks of nm)
Source text: In certain instances, the stevioside: B9 complex comprises a nanoparticle, or a nanomicelle, with a characteristic size distribution of approximately 2 nm to about 4 nanometers. This size, along with their physical and chemical properties, is believed to be important regarding their bioavailability enhancement properties. Nanoparticle size distribution can be measured using Dynamic Light Scattering (DLS).

Caco-2 cell monolayer = experiment: Absorption assessment in Caco-2 cell monolayer; format: in vitro ADME
Source text: The Caco-2 cell monolayer model is the standard for predicting human oral absorption. The test samples included: B9:stevioside at 1:0; 1:4; 1:10 and 1:20.
Table 4 tabulates the permeability of methylfolate calcium (B9) in Caco-2 monolayer cell culture.

[2] = Absorption assessment in a rat model (oral pharmacokinetics); format: in vivo, Sprague Dawley rat; conditions: rats, oral gavage
Source text: Each group (formulation) had 8 rats (n=8).
Vertical bars represent one standard error of the means (n=8).
The table contains various pharmacokinetic parameters in rats orally administered with various methylfolate Ca (B9) formulations. Shown as Average±SD (% over the 1:0 control formulation).

[3] = Concentration of B9 in water and solution appearance at B9:stevioside ratios (HPLC); conditions: for Solution Appearance: 15 mg/mL B9 in water
Procedure: Vitamin B9 (5-methyl folate, MW 459.46) was formulated using stevioside to form a complex.
All water solutions were prepared to contain 15 mg/mL B9 and filtered before HPLC analysis.

[4] = dose equivalent to 19 mg/70 kg person, n=8, Average±SD

CN1c2c(nc(N)[nH]c2=O)NCC1CNc1ccc(C(=O)N[C@@H](CCC(=O)[O-])C(=O)O)cc1.CN1c2c(nc(N)[nH]c2=O)NCC1CNc1ccc(C(=O)N[C@@H](CCC(=O)[O-])C(=O)O)cc1.[Ca+2] (stereo partly drawn) [B9:ST 1:0]
Particle Size MN [1]: 1,865
Particle Size MV [1]: 1,917
permeability in Caco-2 cell monolayer assay (Caco-2 cell monolayer; Caco-2 monolayer): permeable
Permeation enhancement (over 1:0) (Caco-2 cell monolayer; Caco-2 monolayer, 76 μg/mL B9, 2 hr): 1.00
Papp (A-B) (Caco-2 cell monolayer; Caco-2 monolayer, 76 μg/mL B9, assay duration 2 hr): 5.89 ± 0.245 10^−6 · cm· s^−1
predicted oral absorption (Caco-2 cell monolayer; predicted from the Caco-2 value): 70-80%
Caco-2 value (rounded) (Caco-2 cell monolayer; text summary of Table 4, unit not given): 6
AUC0-∞, % over the 1:0 control formulation ([2]; 19 mg/70 kg person equivalent): (100) %
AUC^0-12, % over the 1:0 control formulation ([2]; 19 mg/70 kg person equivalent): (100) %
CL, % over the 1:0 control formulation ([2]; 19 mg/70 kg person equivalent): (100) %
Cmax, % over the 1:0 control formulation ([2]; 19 mg/70 kg person equivalent): (100) %
MRT0-∞, % over the 1:0 control formulation ([2]; 19 mg/70 kg person equivalent): (100) %
T1/2, % over the 1:0 control formulation ([2]; 19 mg/70 kg person equivalent): (100) %
Tmax, % over the 1:0 control formulation ([2]; 19 mg/70 kg person equivalent): (100) %
Vss, % over the 1:0 control formulation ([2]; 19 mg/70 kg person equivalent): (100) %
CL [2, 4]: 0.69 ± 0.06 mL/h kg^−1
Cmax [2, 4]: 0.63 ± 0.04955 µg/mL
MRT0-∞ [2, 4]: 12.41 ± 2.40 h
T1/2 [2, 4]: 8.60 ± 1.92 h
Tmax [2, 4]: 1.59 ± 0.36 h
Vss [2, 4]: 0.0077 ± 0.00095 L/kg
Solution Appearance ([3]; Homogenization for 5 min and heat at 80° for 5 min): Suspension
Concentration (mg/mL in water) ([3]; Homogenization for 5 min and heat at 80° for 5 min, prepared to contain 15 mg/mL B9, filtered before HPLC): 9.2 mg/mL
Solution Appearance ([3]; No homogenization or heat): Suspension
